Reference: patent US20240325319A1, “INHIBITORS OF AMYLOID BETA OLIGOMERIZATION AND THERAPEUTIC USES THEREOF” (Northwestern University, priority 2021, published 2024)
Entries after “also recorded” stand apart in the source; their conditions may differ. Where a SMILES comes first, the peptide text is derived from it. The star is where a group is joined. Cbz = O=C(OCc1ccccc1)*

What was measured:
[1] = test system: acidic lysosomes; assay: Lysotracker labelling of acidic compartments in hippocampal neurons; assay type: cell-based, rat; details: addition of control Bafilomycin A
Procedure: FIG. 24. Mature E18 hippocampal neurons were treated 3 μM NU-9, and subsequently labelled with lysotracker. A) total immunofluorescence (integrated density), B) mean intensity, C) average size of acidic compartments, D) number of acidic compartments.

[2] = test system: AβOs bound to neurons; assay: AβOs bound to dendrites of hippocampal neurons treated with Aβ42 monomer (immunofluorescence, NU2/NU4); assay type: cell-based, rat; details: for influence of lysosome acidification inhibitor on the effect of NU-9: Bafilomycin A 100 nM, 30 min prior to 3 μM NU-9, then 500 nM Aβ monomer 30 min; for AβO accumulation under cathepsin L inhibition: 10 μM cathepsin L inhibitor 1 h, 500 nM Aβ 30 min
[3] = biological target: cathepsin L (Homo sapiens, UniProt P07711); assay: Purified cathepsin L enzyme activity (Z-FR-AMC to 7-AMC); assay type: biochemical; details: same concentration range (0.0003-150 μM)
Procedure: FIG. 26. A) 0.0003-150 μM NU-9 was combined with purified cathepsin L enzyme in the presence of the cathepsin L substrate Z-FR-AMC. Cathepsin L enzyme activity was measured by the rate of 7-AMC production by fluorescence. Percent change in rate was quantified in the graph. […] B) Mature hippocampal neurons were treated with NU-9 for 30 minutes, then Magic Red was used to monitor intracellular cathepsin L activity. Cells were treated in 3 wells, and 9-22 images were analyzed per condition.
No effect of 0.0003-150 μM NU-9 was observed on the cathepsin L activity as measured by the production rate of 7-AMC from Z-FR-AMC by purified cathepsin L enzyme.

[4] = biological target: cathepsin B (Homo sapiens, UniProt P07858); assay: Purified cathepsin B enzyme activity (Z-RR-AMC to 7-AMC); assay type: biochemical; details: same concentration range (0.0003-30 μM)
Procedure: FIG. 28. A) 0.0003-30 μM NU-9 was combined with purified cathepsin B enzyme in the presence of the cathepsin B substrate Z-RR-AMC. Cathepsin B enzyme activity was measured by the rate of 7-AMC production by fluorescence. Percent change in rate with NU-9 was quantified in the graph. […] B) Mature hippocampal neurons were treated with NU-9 for 30 minutes, then Magic Red was used to monitor intracellular cathepsin L activity. Cells were treated in 3 wells.

Sequence of cathepsin L (P07711 114-333, species assumed): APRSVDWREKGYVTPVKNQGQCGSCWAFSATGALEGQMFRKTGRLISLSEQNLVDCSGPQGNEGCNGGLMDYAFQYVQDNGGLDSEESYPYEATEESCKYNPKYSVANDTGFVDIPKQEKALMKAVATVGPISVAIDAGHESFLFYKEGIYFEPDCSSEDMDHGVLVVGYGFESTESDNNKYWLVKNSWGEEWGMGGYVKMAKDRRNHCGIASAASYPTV

Q: How did the “integrated fluorescent density of lysotracker, control” value [1] turn out when `CO/C1=C\C(C)=C\[C@@H](C)[C@@H](O)[C@@H](C)C/C(C)=C/C=C/[C@H](OC)[C@@H]([C@@H](C)[C@@H](O)[C@H](C)[C@@]2(O)C[C@@H](O)[C@H](C)[C@@H](C(C)C)O2)OC1=O` [Bafilomycin A] was run?
A: Its value is “significantly reduced”.

Q: And the “neuron-binding AβOs with lysosome inhibitor in the absence of NU-9” value ([2]; 100 nM bafilomycin A 30 min, Aβ monomer 500 nM 30 min, vs Aβ monomer alone)?
A: Its value is “did not lead to the formation of significantly more neuron-binding AβOs”.

Q: And the “influence of lysosome acidification inhibitor on the effect of NU-9” value [2]?
A: The value was “prevents the effect of NU-9 on AβOs bound to synapses; also recorded: significantly prevented the effect of NU-9”.

Q: What about the “influence of lysosome acidification inhibitor on the effect of NU-9” value ([2]; listed as Bafilomyicin A) of the same compound?
A: Its value is “prevented the effect of NU-9”.

Q: Which results are given for `O=C[C@H](Cc1ccc(O)cc1)NC(=O)[C@H](Cc1ccccc1)NC(=O)OCc1ccccc1` [Z-FY-CHO] (Cbz-Phe-Tyr-aldehyde)?
A: cathepsin L activity, standard inhibitor [3]: reduced cathepsin L activity; AβO accumulation under cathepsin L inhibition [2]: mimicked the effect of NU-9; AβO accumulation under cathepsin L inhibition ([2]; listed as Cathepsin L inhibitor): prevents AβO accumulation

Q: `Ic1cccc(/C=N/Nc2nc(N3CCOCC3)nc(N(c3ccccc3)c3ccccc3)n2)c1` [vacuolin-1] was tested. Which “influence of inhibition of lysosome maturation and exocytosis on NU-9” value ([2]; 1 μM vacuolin-1 1 h pre-treatment, 3 μM NU-9 30 min, 500 nM Aβ42) did it give?
A: Its value is “prevented the effectiveness of NU-9”.

Q: What does the source list for `CC(C)C[C@H](NC(=O)[C@H]1O[C@@H]1C(=O)O)C(=O)NCCCCN=C(N)N` [E64]?
A: number of bound AβOs, inhibitor alone ([2]; E64 10 μM, 24 h, Aβ monomer 500 nM 30 min): significantly reduced the number of bound AβOs; influence of cysteine cathepsin inhibitor on the effect of NU-9 ([2]; E64 10 μM, 24 h, then NU-9 3 μM 30 min, Aβ monomer 500 nM 30 min): did not significantly change the effectiveness of NU-9; also recorded: does not prevent the effect of NU-9

Q: How did the “formation of AβOs under proteasome inhibition” value ([2]; 100 nM MG132 30-min pre-treatment, 500 nM Aβ42) turn out when `CC(C)C[C@@H](C=O)NC(=O)[C@H](CC(C)C)NC(=O)[C@H](CC(C)C)NC(=O)OCc1ccccc1` [MG132] (Cbz-Leu-Leu-Leu-aldehyde) was run?
A: Its value is “no effect on formation of AβOs”.

Q: What about the “influence of proteasome inhibition on reduction of AβO accumulation by NU-9” value ([2]; 100 nM MG132 30 min, 3 μM NU-9 30 min, 500 nM Aβ42) of the same compound?
A: Its value is “no effect on formation of AβOs or reduction of AβO accumulation by NU-9”.

Q: Which “AβO accumulation under calpain inhibition” value ([2]; 10 μM MDL-28170 30 min, 500 nM Aβ42 30 min) does the source give for MDL-28170 here?
A: The value was “reducing AβO accumulation; also recorded: may mimic the effect of NU-9”.

Q: For `CCCNC(=O)[C@H]1O[C@@H]1C(=O)N[C@H](C(=O)N1CCC[C@H]1C(=O)O)[C@@H](C)CC` [CA-074], which “cathepsin B activity, standard inhibitor” value [4] is on record?
A: Its value is “Clear inhibition of enzyme activity”.

Q: And the “influence of cathepsin B inhibitor on the effect of NU-9” value ([2]; 10 μM CA-074 24 h, 3 μM NU-9 30 min, 500 nM Aβ monomer 30 min)?
A: Its value is “prevented the effect of NU-9”.
